Test results reported in patent publication US20250090510A1, “eIF4G1-eIF1 INHIBITORS AND USE THEREOF” (YEDA RESEARCH AND DEVELOPMENT CO. LTD., priority 2022, published 2025).

Tested on: near cognate start codon initiation in HEK293T cells
Assay: Firefly luciferase reporter with AUG or near cognate start codons
Assay type: cell-based, human
Conditions: 5 μM, 16 h
Method: FIGS. 4A-L: The effect eIF1-eIF4G1 inhibition by i14G1-10 or i14G1-12 on global translation is linked to start codon stringency. (4A) HEK293T cells were treated with DMSO, i14G1-10 (20 μM), and i14G-20 (10 μM) for 3 h and then ribosome foot printing libraries were prepared, sequenced and analyzed as described in the scheme. The presented graphs show meta-gene analysis of the distribution of normalized reads in the coding region (CDS) and 5′UTR of all analyzed genes in DMSO (black), i14G1-10 (blue), and i14G1-12 (red). […] (4F) The translation efficiency of eIF1 in DMSO, i14G1-10 and i14G1-12 samples calculated from the Ribo-seq data. […] (4J) Scatter plots showing the translation efficiencies correlations (R2 >0.9) of all analyzed genes between the two independent replicate experiments with DMSO (vehicle control) (top), i14G1-10 (middle), and i14G1-12 (bottom). (4K) Scatter plots showing the translation efficiencies correlations between 5′UTR and CDS (Pearson's r >0.5) of all analyzed genes of two independent replicate experiments with i14G1-10 (left) and i14G1-12 (right).
Reporter assays. […] The luminescence was measured on Turner Biosystems Luminometer.
Next, the sequence context of the translation initiation site (TIS) in the ribosome footprints of the 5′UTR in DMSO, i14G1-10 or i14G1-12 samples was determined. To assign the 5′UTR TISs, the Hrr+CHX reads were used (see Materials and Methods). […]

SMILES | near cognate start codon reporter activities relative to AUG
Cn1ccnc1S/C(=C/C=C(C#N)C#N)c1ccc(Cl)cc1 [i14G1-12] | significantly enhanced the activities of ACG, CUG, GUG, and UUG relative to AUG
O=C(/C=C/Sc1ccc(C(F)(F)F)cn1)c1ccccc1 [i14G1-10] | significantly enhanced the activities of ACG, CUG, GUG, and UUG relative to AUG
